The target of one series is T1, human EP2 receptors (Homo sapiens, UniProt P43116).
T1 construct: expressed in transfected cells
Nature of the series: cell-based cAMP TR-FRET assay, rightward shift of PGE2 concentration response curve (Schild KB), EP2. As to conditions: for Kb: read-out: EP2 KB. The procedure: KB value indicates the antagonist concentration required for a twofold rightward shift in the PGE2 dose-response curve. Thus, a lower KB value indicates a higher inhibitory potency.
(§1) The synthesis was carried out starting from commercially available 2-methyl indole or 2-trifluoromethyl indoles (11a-c), which on treatment with bromoacetonitrile provided intermediates (12a-c), which then were subjected to lithium aluminum hydride to reduce cyanide to amines. […] Synthesized derivatives were tested by using a cAMP-derived TR-FRET assay, at single concentration (1 μM) to observe a rightward shift of PGE2 (an EP2 agonist) concentration response curve in a C6G cell line that overexpresses human EP2 receptors.
A lower KB value indicates a higher inhibitory potency.
(§2) Intracellular cAMP was measured with a cell-based homogeneous time-resolved fluorescence resonance energy transfer (TR-FRET) method (Cisbio Bioassays). […] Endogenous cAMP produced by cells competes with labeled cAMP for binding to the cAMP antibody and thus reduces the FRET signal. Cells stably expressing human DP1, EP2, EP4, or IP receptors were seeded into 384-well plates in 30 μl complete medium (4,000 cells/well) and grown overnight. The medium was carefully withdrawn and 10 μl Hanks' Buffered Salt Solution (HBSS) (Hyclone) containing 20 μM rolipram was added into the wells to block phosphodiesterases. The cells were incubated at room temperature for 0.5-1 h and then treated with vehicle or test compound for 10 min before addition of increasing concentrations of appropriate agonist: BW245C for DP1, PGE2 for EP2 and EP4, or iloprost for IP. The cells were incubated at room temperature for 40 min, then lysed in 10 μl lysis buffer containing the FRET acceptor cAMP-d2 and 1 min later another 10 μl lysis buffer with anti-cAMP-Cryptate was added. After 60-90 min incubation at room temperature, the FRET signal was measured by an Envision 2103 Multilabel Plate Reader (PerkinElmer Life Sciences) with a laser excitation at 337 nm and dual emissions at 665 nm and 590 nm for d2 and Cryptate (50 s delay), respectively. The FRET signal was expressed as: F665/F590×10^4.
Background: In TR-FRET formats the signal depends on donor and acceptor labels being close together.

The target of the next series is T2, human DP1 receptors (Homo sapiens, UniProt Q13258).
T2 construct: expressed in transfected cells
T2 sequence (Q13258 1-359): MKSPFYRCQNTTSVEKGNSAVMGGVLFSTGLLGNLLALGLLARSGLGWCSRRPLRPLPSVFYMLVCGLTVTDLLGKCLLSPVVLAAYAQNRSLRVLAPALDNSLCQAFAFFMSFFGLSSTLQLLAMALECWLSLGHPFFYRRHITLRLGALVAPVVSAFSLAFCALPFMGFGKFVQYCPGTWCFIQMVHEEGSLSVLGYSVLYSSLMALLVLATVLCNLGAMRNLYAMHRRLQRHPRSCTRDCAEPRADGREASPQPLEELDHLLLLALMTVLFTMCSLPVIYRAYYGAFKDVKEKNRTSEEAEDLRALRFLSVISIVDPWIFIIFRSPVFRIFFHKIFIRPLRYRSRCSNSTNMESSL
As to the kind of experiment: cell-based cAMP TR-FRET assay, DP1 (agonist BW245C). The protocol: as §1
as §2, with “After 60-90 min incubation at room temperature, the FRET signal was measured by an Envision 2103 Multilabel Plate Reader (PerkinElmer Life Sciences) with a laser excitation at 337 nm and dual emissions at 665 nm and 590 nm for d2 and Cryptate (50 s delay), respectively.” left out

In a further series the target is T3, human EP4 receptors (Homo sapiens, UniProt P35408).
T3 construct: expressed in transfected cells
T3 sequence (P35408 whole entry): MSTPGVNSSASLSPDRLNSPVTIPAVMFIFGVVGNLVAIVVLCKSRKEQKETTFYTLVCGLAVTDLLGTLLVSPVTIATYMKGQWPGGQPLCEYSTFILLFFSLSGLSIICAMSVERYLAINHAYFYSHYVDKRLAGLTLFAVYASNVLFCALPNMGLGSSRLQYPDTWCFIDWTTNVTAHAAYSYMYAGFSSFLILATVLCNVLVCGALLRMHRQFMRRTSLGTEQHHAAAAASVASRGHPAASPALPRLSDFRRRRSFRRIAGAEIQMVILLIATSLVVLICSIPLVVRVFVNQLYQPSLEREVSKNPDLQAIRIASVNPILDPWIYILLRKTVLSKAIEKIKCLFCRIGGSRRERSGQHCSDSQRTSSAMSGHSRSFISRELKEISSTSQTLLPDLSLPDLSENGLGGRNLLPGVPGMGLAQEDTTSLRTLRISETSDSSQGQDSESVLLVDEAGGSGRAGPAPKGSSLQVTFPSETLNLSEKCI
Nature of the series: cell-based cAMP TR-FRET assay, EP4 (agonist PGE2). To be noted: for potency estimated from few doses / Selective Index EP4/EP2: Table 2; for potency estimated from few doses: extrapolated Schild KB from single concentration of 10 μM. The protocol: (§3) These derivatives were selected for testing against EP4 and IP receptors. Cell lines were created that overexpress EP4 receptors, or IP receptors on C6-glioma cells. A cAMP-derived TR-FRET assay was developed using agonists PGE2 (for EP4) and iloprost (for IP), similar to EP2 assay.
as §2

A further series has as its target T4, human IP receptors (Homo sapiens, UniProt P43119).
T4 construct: expressed in transfected cells
Nature of the series: cell-based cAMP TR-FRET assay, IP (agonist iloprost). As to conditions: Table 2; for potency estimated from few doses: extrapolated Schild KB from single concentration of 10 μM. The protocol: as §3, §2

A further series relates to C6-glioma cells. To be noted: rat.
Where [1] appears, read: Table 1, Schild KB from single antagonist concentration 1 μM, average of 2-3 measurements in duplicate.

Read-outs that look alike come from different tables or passages of the source.

T4 sequence (P43119 whole entry): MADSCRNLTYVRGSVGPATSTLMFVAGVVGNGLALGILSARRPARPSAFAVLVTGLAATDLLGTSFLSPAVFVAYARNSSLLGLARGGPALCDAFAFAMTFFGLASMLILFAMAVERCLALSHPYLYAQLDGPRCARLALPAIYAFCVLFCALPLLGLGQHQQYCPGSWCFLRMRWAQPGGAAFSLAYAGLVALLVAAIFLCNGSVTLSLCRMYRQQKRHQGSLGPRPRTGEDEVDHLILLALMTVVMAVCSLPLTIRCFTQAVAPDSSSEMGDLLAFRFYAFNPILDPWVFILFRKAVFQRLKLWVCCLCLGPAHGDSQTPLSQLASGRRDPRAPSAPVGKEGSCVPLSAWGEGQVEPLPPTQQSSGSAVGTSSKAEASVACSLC
T1 sequence (P43116 whole entry): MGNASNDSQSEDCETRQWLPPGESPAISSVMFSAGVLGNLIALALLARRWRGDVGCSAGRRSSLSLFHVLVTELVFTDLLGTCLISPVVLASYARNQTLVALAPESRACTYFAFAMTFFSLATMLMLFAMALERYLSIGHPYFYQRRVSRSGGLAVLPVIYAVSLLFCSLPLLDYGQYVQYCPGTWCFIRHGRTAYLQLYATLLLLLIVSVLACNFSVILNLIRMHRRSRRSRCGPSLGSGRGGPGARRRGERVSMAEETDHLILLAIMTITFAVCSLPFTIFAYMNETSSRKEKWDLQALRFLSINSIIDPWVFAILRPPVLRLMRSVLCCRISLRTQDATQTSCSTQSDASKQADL
Procedure for C6-glioma cells: CC50 are average one measurement run in triplicate.
Several of compounds were examined against EP4 and IP receptors at single concentration of 10 μM.

In the case of `COc1ccc(C(=O)NCCn2c(C)cc3ccccc32)cc1OC` [Compound 6b], the Kb at human EP2 receptors (setting [1]) is 22.3 nM; on human EP2 receptors (Table 6), 26.7 nM; on human DP1 receptors (Table 6, read-out: DP1 KB), 1350 nM.
Turning to `Cc1cc2ccccc2n1CCNC(=O)c1ccc(N(C)C)cc1` [Compound 6e, 4-(Dimethylamino)-N-(2-(2-methyl-1H-indol-1-yl)ethyl)benzamide], the results for the potency estimated from few doses on human EP4 receptors and at human IP receptors were 51000 nM and 4700 nM, respectively. Further, the Kb stood at 9.8 nM at human EP2 receptors (setting [1]) and 6430 nM at human DP1 receptors (Table 2, read-out: KB DP1). For the same compound, the midpoint of cytotoxicity in the series with C6-glioma cells, the CC50, lay at 310000 nM.
Take `CCCN(CCC)c1ccc(C(=O)NCCn2c(C)cc3ccccc32)cc1` [Compound 6g]: on human EP4 receptors, the “Selective Index EP4/EP2” value is recorded as 1320 and the potency estimated from few doses was 15500 nM. Further, on human IP receptors, the “Selective Index (IP/EP2)” value stood at 95 and the potency estimated from few doses is 1120 nM. The “Selective Index (DP1/EP2)” value at human DP1 receptors (Table 2) amounted to 298. In addition, in the series with C6-glioma cells, the CC50 – broadly, the concentration that lowers cell viability or growth by half – amounted to 332000 nM and the “Therapeutic Index (CC50/EP2 KB)” value was 28,130.
With `Cc1cc2ccccc2n1CCNC(=O)c1ccc(N2CCCCCC2)cc1` [Compound 7o], at human EP4 receptors, the “Selective Index EP4/EP2” value is reported as 1,045 and the potency estimated from few doses is 23600 nM. In addition, at human IP receptors, the “Selective Index (IP/EP2)” value is listed as 375 and the potency estimated from few doses was 8500 nM. At human DP1 receptors (Table 2), the “Selective Index (DP1/EP2)” value amounted to 342. Also, in the series with C6-glioma cells, the CC50 turned out to be 327000 nM and the “Therapeutic Index (CC50/EP2 KB)” value is on record as 14,470.
On to `Cc1cc2ccccc2n1CCNC(=O)c1ccc(N2CCN(C)CC2)c(F)c1` [Compound 7u], for which, at human EP4 receptors (EP2 over EP4), the “selectivity over EP4” value is 100 fold. Besides, on human EP4 receptors, the “Selective Index EP4/EP2” value turned out to be 106 and the potency estimated from few doses is 4760 nM. Moreover, at human IP receptors, the “Selective Index (IP/EP2)” value is 1,420 and the potency estimated from few doses is 64000 nM. Besides, the “Selective Index (DP1/EP2)” value on human DP1 receptors (Table 2) was 22. In the series with C6-glioma cells, it took 300000 nM to reach half-maximal cytotoxicity (CC50) and the “Therapeutic Index (CC50/EP2 KB)” value is reported as 6,660.
In the case of `Cc1cc2ccccc2n1CCNC(=O)c1ccc(N2CCC(O)CC2)cc1` [Compound 7w], at human EP4 receptors, the “Selective Index EP4/EP2” value is reported as 2,629 and the potency estimated from few doses is 70300 nM. On human IP receptors, the “Selective Index (IP/EP2)” value was 675 and the potency estimated from few doses is 18100 nM. The “Selective Index (DP1/EP2)” value on human DP1 receptors (Table 2) is given as 172. In the series on C6-glioma cells, the CC50 was 163000 nM, the “Therapeutic Index (CC50/EP2 KB)” value is recorded as 6,082 and the “concentration showing an effect on cell viability” value was over 100 µM.
On to `Cc1[nH]c2ccccc2c1CCNC(=O)c1ccc(N(C)C)cc1` [Compound 8z], for which the potency estimated from few doses was 16400 nM on human EP4 receptors and 63100 nM on human IP receptors. Besides, in the series with C6-glioma cells, the midpoint of cytotoxicity, the CC50, lay at 320000 nM.
With `Cc1[nH]c2ccccc2c1CCNC(=O)c1ccc(N2CCOCC2)cc1` [Compound 9c], in the series on C6-glioma cells, the CC50 is 311000 nM.
Take `COc1cc(/C=C/C(=O)N2CCC(c3c(C)[nH]c4ccccc34)C2)cc(OC)c1OC` (stereo not drawn) [Compound 16o]: the Kb at human EP2 receptors (Table 3, Schild KB from single concentration 1 μM) is over 1000 nM.
Take `Cc1cc2ccccc2n1CCNC(=O)c1cc(-c2ccccc2)no1` [TG7-242]: at human EP2 receptors (Table 6), the Kb was 29.5 nM. The “DP1 KB” value at human DP1 receptors (Table 6) is “Inactive”.
`Cc1cc2ccccc2n1CCNC(=O)c1cc(-c2ccc(F)cc2)n[nH]1` [TG7-245]: the Kb at human EP2 receptors (Table 6) was 22.7 nM; on human DP1 receptors (Table 6, read-out: DP1 KB), 140000 nM.
With `O=C(NCCn1c(C(F)(F)F)cc2ccccc21)c1cc(-c2ccc(F)cc2)n[nH]1` [TG7-266], the Kb at human EP2 receptors (Table 6) was 8800 nM.
Still for that read-out and setting: the result for `Cc1cc(C(=O)NCCn2c(C)cc3ccccc32)n(Cc2ccccc2)n1` [TG7-274] reads 1330 nM; that for `Cc1ccc2c(O)c(C(=O)NCCn3c(C)cc4ccccc43)cnc2n1` [TG7-275], 1810 nM.
In the case of `Cc1nc2ccccc2c(C(=O)NCCn2c(C)cc3ccccc32)c1O` [TG7-276], at human EP2 receptors (Table 6), the “EP2 KB” value is “Inactive”.
On to `Cc1cc2ccccc2n1CCNC(=O)c1cc(CC(C)C)no1` [TG7-277], for which the Kb on human EP2 receptors (Table 6) is 172 nM.
For the compound `Cc1cc2ccccc2n1C1CCCN(C(=O)c2ccc(N3CCOCC3)cc2)C1` (stereo not drawn) [TG7-292], on human EP2 receptors (Table 6), the Kb is 1790 nM. Also, the “DP1 KB” value on human DP1 receptors (Table 6) is “Inactive”.
With `Cc1cc2ccccc2n1CCNC(=O)c1ccc(N=[N+]=[N-])cc1` [TG7-297], the Kb was determined as 89.4 nM at human EP2 receptors (Table 6) and 1890 nM on human DP1 receptors (Table 6, read-out: DP1 KB).
Take `Cc1cc2cc(Br)ccc2n1CCNC(=O)c1ccc(N2CCOCC2)cc1` [TG7-300]: the Kb at human EP2 receptors (Table 6) is 247 nM; at human DP1 receptors (Table 6, read-out: DP1 KB) it was 18900 nM.
In the case of `Cc1cc2ccccc2n1CCNC(=O)c1ccc(OCCO)c(OCCO)c1` [TG8-3], the Kb worked out at 271 nM at human EP2 receptors (Table 6) and 62900 nM at human DP1 receptors (Table 6, read-out: DP1 KB).
For the compound `Cc1cc2ccccc2n1CCNC(=O)c1ccc(OCCO)cc1` [TG8-12], the Kb on human EP2 receptors (Table 6) came out at 133 nM; on human DP1 receptors (Table 6, read-out: DP1 KB), 2740 nM.
In the case of `CCOC(=O)C1CCN(c2ccc(C(=O)NCCn3c(C(F)(F)F)cc4ccccc43)cc2)CC1` [TG8-42], the Kb at human EP2 receptors (Table 6) came out at 2740 nM; at human DP1 receptors (Table 6, read-out: DP1 KB), 3240 nM.
On to `O=C(NCCn1c(C(F)(F)F)cc2ccccc21)c1ccc(N2CCC(C(=O)O)CC2)cc1` [TG8-46], for which the Kb at human EP2 receptors (Table 6) amounted to 413 nM; on human DP1 receptors (Table 6, read-out: DP1 KB) it was 1060 nM.
For `O=C(NCCn1c(C(F)(F)F)cc2ccccc21)c1ccc(-c2nnn[nH]2)cc1` [TG8-47], in that order: 1110 nM and 795 nM.
For `C#Cc1ccc(C(=O)NCCn2c(C)cc3ccccc32)cc1` [TG8-52], in that order: 77.5 nM and 609 nM.
With `Cc1cc2ccccc2n1CCNC(=O)c1ccc(-c2cn(COCc3ccccc3)nn2)cc1` [TG8-54], the Kb on human EP2 receptors (Table 6) was found to be 164 nM; at human DP1 receptors (Table 6, read-out: DP1 KB) it was 3390 nM.
On to `Cc1cc2ccccc2n1CCNC(=O)c1ccc(-c2cn(Cc3ccccc3)nn2)cc1` [TG8-55], for which the Kb on human EP2 receptors (Table 6) was 305 nM; at human DP1 receptors (Table 6, read-out: DP1 KB) it was 6960 nM.
With `Cc1cc2ccccc2n1CCNC(=O)c1cnc(N2CCC(CO)CC2)nc1` [TG8-59], the Kb amounted to 159 nM at human EP2 receptors (Table 6) and 5850 nM at human DP1 receptors (Table 6, read-out: DP1 KB).
The matching figures for `Cc1cc2ccccc2n1CCNC(=O)c1ccc(-n2cc(CO)nn2)cc1` [TG8-60]: 28.2 nM and 2420 nM.
As for `Cc1cc2ccccc2n1CCNC(=O)c1ccc(N2CCC(C(=O)N(C)C)CC2)cc1` [TG8-64], the Kb on human EP2 receptors (Table 6) turned out to be 190 nM.
With `COc1cc(C(=O)NCCn2c(C)cc3ccccc32)ccc1OCCN(C)C` [TG8-75], the Kb on human EP2 receptors (Table 6) was found to be 1000 nM.
With `Cc1cc2ccccc2n1CCNC(=O)c1ccc(OCCN(C)C)c(OCCN(C)C)c1` [TG8-76-2], the “EP2 KB” value at human EP2 receptors (Table 6) is “Inactive”.

Values taken from patent US11077120B2, “Prostaglandin receptor EP2 antagonists, derivatives, compositions, and uses related thereto” (Emory University, priority 2014, dated 2021).
